From patent publication US20040006070A1, “Intraspinal continuous infusion of midazolam hydrochloride for the treatment of pain” (priority 2002, published 2004)
Counter-ions that a name gives are not always drawn.

Experiment: Bloodwork: complete blood count, electrolytes, extended blood chemistry
Assay type: in vivo, sheep
Details: for Total Bili: ref 0.14-0.32; for Creatinine: ref 1-2.7; for Albumin: ref 2.4-3; for K+: ref 3.9-5.4; for Phos: ref 5-7.3; for Total Prot: ref 6-7.9
Procedure: Indirect blood pressure, pulse recording, pain testing (mechanical stimulus device, cold and warm water baths see description in procedure) and weight were taken on days 1, 3, 7, 15, 22, 29, 36, and 43. Venous blood samples (15 ml drawn from the jugular vein with Vacutainer brand blood collection tubes) for complete blood count, electrolytes, and extended blood chemistry were drawn on days 1, 15, and 43 (mild procedure only light hand restraint necessary).

## Cc1ncc2n1-c1ccc(Cl)cc1C(c1ccccc1F)=NC2 [Midazolam, midazolam hydrochloride]
Sheep #473, 3 mg/day, Day 1
  AST: 239 U/L
  Alk Phos: 41 U/L
  BUN: 10 mg/dL
  CPK: 392 U/L
  Cholesterol: 72 mg/dL
  Differential Count: Eosin: 1%
  Differential Count: Lymph: 39%
  Differential Count: Mono: 1%
  Differential Count: Seg: 59%
  Gamma GT: 69 U/L
  Glucose: 91 mg/dL
  Hct: 33.0%
  Hgb: 11.3 g/dL
  MCH: 9.7 pg
  MCHC: 32.2 G/dl
  MCV: 30.0 fL
  Na+: 153 mEq/l
  Platlet Count: 666000 µL⁻¹
  RBC: 1.1e+07 µL⁻¹
  WBC: 5800 µL⁻¹
  Total Bili: 0.2 mg/dL
  Creatinine: 1.0 mg/dL
  Albumin: 3.4 g/dL
  K+: 4.4 mEq/l
  Phos: 6.9 mg/dL
  Total Prot: 6.5 g/dL
Sheep #473, 3 mg/day, Day 15
  ALT: 1 U/L
  AST: 85 U/L
  Alk Phos: 59 U/L
  BUN: 10 mg/dL
  CPK: 98 U/L
  Cholesterol: 79 mg/dL
  Differential Count: Eosin: 6%
  Differential Count: Lymph: 53%
  Differential Count: Mono: 1%
  Differential Count: Seg: 40%
  Gamma GT: 59 U/L
  Glucose: 74 mg/dL
  Hct: 41.0%
  Hgb: 12.9 g/dL
  MCH: 9.3 pg
  MCHC: 31.5 G/dl
  MCV: 29.6 fL
  Na+: 152 mEq/l
  Platlet Count: 336000 µL⁻¹
  RBC: 1.25e+07 µL⁻¹
  WBC: 5100 µL⁻¹
  Total Bili: 0.1 mg/dL
  Creatinine: 1.2 mg/dL
  Albumin: 3.7 g/dL
  K+: 4.6 mEq/l
  Phos: 5.8 mg/dL
  Total Prot: 6.7 g/dL
Sheep #473, 3 mg/day, Day 43
  ALT: 8 U/L
  AST: 61 U/L
  Alk Phos: 73 U/L
  BUN: 15 mg/dL
  CPK: 82 U/L
  Cholesterol: 78 mg/dL
  Differential Count: Eosin: 2%
  Differential Count: Lymph: 60%
  Differential Count: Mono: 2%
  Differential Count: Seg: 36%
  Gamma GT: 58 U/L
  Glucose: 59 mg/dL
  Hct: 41.5%
  Hgb: 12.9 g/dL
  MCH: 9.4 pg
  MCHC: 31.1 G/dl
  MCV: 30.2 fL
  Na+: 150 mEq/l
  Platlet Count: 263000 µL⁻¹
  RBC: 1.373e+07 µL⁻¹
  WBC: 3400 µL⁻¹
  Total Bili: 0.0 mg/dL
  Creatinine: 1.5 mg/dL
  Albumin: 3.4 g/dL
  K+: 5.6 mEq/l
  Phos: 5.3 mg/dL
  Total Prot: 6.4 g/dL
Sheep #498, 10 mg/day, Day 1
  ALT: 8.0 U/L
  AST: 95 U/L
  Alk Phos: 45 U/L
  BUN: 9.0 Mg/dl
  CPK: 89 U/L
  Cholesterol: 63 Mg/dl
  Differential Count: Atyp lym: 2%
  Differential Count: Baso: 1%
  Differential Count: Lymph: 28%
  Differential Count: Mono: 1%
  Differential Count: Seg: 68%
  Gamma GT: 74 U/L
  Glucose: 131 mg/dL
  Hct: 31.0%
  Hgb: 11.1 g/dL
  MCH: 9.6 pg
  MCHC: 32.0 g/dL
  MCV: 30.1 fL
  Na+: 151 mEq/l
  Platlet Count: 592000 µL⁻¹
  RBC: 1.153e+07 µL⁻¹
  WBC: 6000 µL⁻¹
  Total Bili: 0.2 mg/dL
  Creatinine: 1.6 mg/dL
  Albumin: 3.9 g/dL
  K+: 4.4 mEq/l
  Phos: 3.8 Mg/dl
  Total Prot: 6.4 g/dL
Sheep #498, 10 mg/day, Day 15
  ALT: 7.0 U/L
  AST: 86 U/L
  Alk Phos: 87 U/L
  BUN: 16 Mg/dl
  CPK: 154 U/L
  Cholesterol: 63 Mg/dl
  Differential Count: Bands: 8%
  Differential Count: Lymph: 66%
  Differential Count: Mono: 3%
  Differential Count: Seg: 23%
  Gamma GT: 90 U/L
  Glucose: 78 mg/dL
  Hct: 44.8%
  Hgb: 13.3 g/dL
  MCH: 9.2 pg
  MCHC: 29.7 g/dL
  MCV: 31.1 fL
  Na+: 151 mEq/l
  Platlet Count: 42000 µL⁻¹
  RBC: 1.439e+07 µL⁻¹
  WBC: 8600 µL⁻¹
  Total Bili: 0.1 mg/dL
  Creatinine: 1.8 mg/dL
  Albumin: 3.4 g/dL
  K+: 5.1 mEq/l
  Phos: 6.4 Mg/dl
  Total Prot: 6.7 g/dL
Sheep #498, 10 mg/day, Day 43
  ALT: 8.0 U/L
  AST: 89 U/L
  Alk Phos: 87 U/L
  BUN: 13 Mg/dl
  CPK: 203 U/L
  Cholesterol: 67 Mg/dl
  Differential Count: Eosin: 3%
  Differential Count: Lymph: 63%
  Differential Count: Mono: 1%
  Differential Count: Seg: 33%
  Gamma GT: 65 U/L
  Glucose: 77 mg/dL
  Hct: 34.7%
  Hgb: 10.5 g/dL
